Source: article PMC5466683, “Development and Evaluation of ^18F-IRS for Molecular Imaging Mutant EGF Receptors in NSCLC” (Scientific Reports, 2017)
One block for each molecule: values may come before it.

What was measured:
H1975 cells [1] = test: MTT cell growth inhibition assay; format: cell-based; conditions: Homo sapiens, NCI-H1975, H1975 cells (L858R and T790M EGFR mutations), 48 h
Method: (§1) NSCLC having EGFR with L858R mutation is also respond to EGFR kinase inhibitors. H3255 cells expressing EGFR L858R mutant is sensitive to EGFR kinase inhibitors. In order to measure the sensitivity of five NSCLC cell lines to F-IRS, […] assay was performed. Tumor cells were plated at a density of 2 × 10^3 cells/well into 96-well plates in RPMI 1640 with 10% FBS. Cells were kept in the log phase of proliferative activity. Various concentrations of F-IRS added to each well, and incubation was continued for an additional 48 h. Then, 50 μL of MTT solution (2 mg/mL; Sigma) were added to all wells, and incubation was continued for another 2 h. The media containing MTT solution was removed, and the precipitated material was dissolved by adding 100 μL of DMSO. The absorbance was measured with a microplate reader at test and reference wavelengths of […], respectively. The percentage of growth is shown relative to untreated controls.

H358 cells [2] = test: MTT cell growth inhibition assay; format: cell-based; conditions: Homo sapiens, NCI-H358, H358 cells (WT EGFR), 48 h
Method: as §1

H520 cells [3] = test: MTT cell growth inhibition assay; format: cell-based; conditions: Homo sapiens, NCI-H520, H520 cells (negative EGFR), 48 h
Method: as §1

HCC827 cells [4] = test: MTT cell growth inhibition assay; format: cell-based; conditions: Homo sapiens, HCC827 cells (19 exon deleted mutant EGFR), 48 h
Method: as §1

H3255 cells = test: MTT cell growth inhibition assay; format: cell-based; conditions: Homo sapiens, NCI-H3255, H3255 cells (EGFR L858R mutant), 48 h
Method: as §1

H520 xenografts [5] = test: In vivo PET/CT imaging of tumor-bearing mice; design: species or system BALB/c nude mice; conditions: H520 tumors, all time points
Method: (§2) All animal studies were conducted in accordance with the China Guidelines for Animal Care and Ethic for Animal Experiments and the experimental protocols were approved by the Animal Use and Care Committee of Harbin Medical University. Female BALB/c nude mice (from the Shanghai Slack Experimental Animal Center of qualified animals SCXK) approximately 4–6 weeks of age and mean weight 20–22 g were used. Approximately 5 × 10^6 of cultured HCC827, H1975, H358 and H520 cells were suspended in PBS/Matrigel (1:1) (BD Bioscience) and subcutaneously implanted in the right shoulders of Female BALB/c nude mice. PET/CT studies were performed when the tumor volume reached 250 mm^3 (4–6 weeks after inoculation).
(§3) PET/CT imaging of tumor-bearing mice was performed on a clinical time-of-flight (TOF) 64-slice PET/Computed tomography (CT) scanner (Discovery 790 Elite, GE healthcare). The mice bearing tumors (for each group n = 4) were injected with 3.7 MBq (100 μCi) of ^18F-IRS into the tail vein. At 30 min, 60 min and 120 min after injection, the mice were anesthetized with 2% isoflurane and placed near the center of the field of view of the PET/CT scanner in prone position. For blocking studies, gefitinib (100 mg/kg) was injected into HCC827 xenografts nude mice (n = 4) via tail vein 60 min before PET/CT imaging. The mice were imaged as described above 120 min after injection.
(§4) The images were reconstructed using a two-dimensional ordered-subset expectation maximization (OSEM) algorithm. For each scan, regions of interest (ROIs) were drawn over the tumor and major organs using the AW4.6 software (GE Healthcare) on decay-corrected whole-body coronal images. The radioactivity concentrations (accumulations) within the tumor, muscle were obtained from mean pixel values within the multiple ROI volumes and then converted to megabecquerels per milliliter per minute using the calibration factor determined for the PET system. These values were then divided by the administered activity to obtain (assuming a tissue density of 1 g/ml) an image ROI-derived percent injected dose per gram (% ID/g).

H1975 xenografts = test: In vivo PET/CT imaging of tumor-bearing mice; design: species or system BALB/c nude mice; conditions: H1975 tumors, all time points
Method: as §2, §3, §4

H358 xenografts [6] = test: In vivo PET/CT imaging of tumor-bearing mice; design: species or system BALB/c nude mice; conditions: H358 tumors, all time points
Method: as §2, §3, §4

[7] = Biodistribution and clearance in normal organs of tumor-bearing mice; format: in vivo, BALB/c nude mice
Method: as §3
(§5) Biodistribution studies were performed in BALB/c nude mice bearing HCC827, H1975, H358 and H520 xenografts by injecting 3.7MBq of ^18F-IRS into the tail vein (n = 4 per group) and then sacrificing the animals at 30 min, 60 min and 120 min after injection. Tumor and normal tissues were excised and weighed, and the radioactivity was measured using a gamma-counter (Wizard 2, PerkinElmer). All measurements were background-subtracted and decay-corrected to the time of injection and then averaged together. The radioactivity uptake in tumor and normal tissues was expressed as the percentage of the injected dose per gram of organ (% ID/g).

H1975 cells [8] = test: Cellular uptake and efflux assay; format: cell-based, human; conditions: 120 min of incubation
Method: (§6) Cells were trypsinized and seeded overnight in 12-well culture plates at a density of 1 × 10^5 cells per well (1 × 10^5 cells/1.0 mL/well). ^18F-IRS (37 kBq/1.0 mL/well) in 1 ml of serum free 1640 medium was added to each well and incubated at 37 °C for 15 min, 30 min, 60 min and 120 min. Triplicates were carried out for each time point. One milliliter of ice-cold PBS was used to intercept the uptake of tracer. The supernatants were aspirated and the cells were rinsed twice with 1 mL of ice-cold PBS to remove surface-bound radioactive ligand. After washing twice with PBS, the cells were harvested by the addition of 250 μl of 0.1 N NaOH. Efflux assays were performed after 120 min of incubation with ^18F-IRS and then the media was removed and replaced with serum free 1640 medium without ^18F-IRS. At 15 min, 30 min, 60 min and 120 min, the media was removed and the cells washed twice with ice-cold PBS. 200 μl of 0.1 N NaOH were added to […] the cells and then the wells were washed twice with 1 ml of ice-cold PBS. The cell solution and the PBS from each washed well were recovered and counted with CPM in a gamma counter (Wizard 2, PerkinElmer). The results were calculated using the same cellular uptake formula. For blocking experiments, gefitinib (100 μmol/L) was added to HCC827 cells. After 60 min of incubation, the uptake and efflux assays in HCC827 cells were repeated thrice.

H358 cells [9] = test: Cellular uptake and efflux assay; format: cell-based, human; conditions: 120 min of incubation
Method: as §6

H520 cells [10] = test: Cellular uptake and efflux assay; format: cell-based, human; conditions: 120 min of incubation
Method: as §6

[11] = test system: NSCLC with responsive EGFR exon 19 deleted; test: PET/CT examination of patients with NSCLC; format: in vivo, human
Source text: This study (ClinicalTrials.gov number, NCT03031522) was approved by the Medical Ethics Review Committee of the Fourth Hospital of Harbin Medical University. Subjects signed written informed consent after receiving an explanation of the study. The images provided in this article have been agreed by the subjects. The diagnosis was confirmed by histopathological examination. Three patients confirmed having NSCLC with responsive EGFR exon 19 deleted by histopathology participated in the study from January 2015 to February 2016 (Table 2). ^18F-IRS scans were performed on PET/CT (Discovery 790 Elite; GE healthcare). Approximately 222MBq (6 mCi) of ^18F-IRS was administered intravenously within 5 minutes. Scanning was in initiated 1 hour after administration of ^18F-IRS. Corresponding whole body CT scans for attenuation correction were acquired using a low-dose protocol. Consecutively, PET emission data were acquired in three-dimensional mode with a 200 × 200 matrix with 3 min emission time per bed position. The maximum standard uptake value (SUVmax) normalized to body weight […] was calculated within the region of interest with the following formula: [measured activity concentration (Bq/mL) · body weight (kg)]/injected activity (Bq). Calculation of the radioactivity concentration included the use of a calibration factor that converted the activity counts into becquerels, and the decay correction of the Advantage Workstation 4.6 workstation (GE Healthcare) was […].

HCC827 cells [12] = test: Cellular uptake, efflux and blocking assay; format: cell-based, human; conditions: for cellular uptake: HCC827 cells
Method: as §6

HCC827 xenografts [13] = test: In vivo PET/CT imaging and blocking of tumor-bearing mice; design: species or system BALB/c nude mice
Method: as §2, §3, §4

H520 xenografts [14] = test: Ex vivo biodistribution, tumor uptake; format: in vivo, BALB/c nude mice; conditions: H520 tumors, 120 min after injection
Method: as §2, §5

H358 xenografts [15] = test: Ex vivo biodistribution, tumor uptake; format: in vivo, BALB/c nude mice; conditions: H358 tumors, 120 min after injection
Method: as §2, §5

HCC827 xenografts [16] = test: Ex vivo biodistribution, tumor uptake; format: in vivo, BALB/c nude mice
Method: as §2, §5

H520 cells [17] = test system: H520 cells; design: method as in PMID 21152424; conditions: H520 (negative EGFR); cited from earlier work
H358 cell line = test system: H358 cell line; design: method as in PMID 19826406; conditions: H358 (EGFR wild type); cited from earlier work
H1975 = test system: H1975; design: method as in PMID 15767641; conditions: H1975, L858R and T790M secondary mutation; cited from earlier work
[18] = Mean ± SD of three patients, 60 min after injection
[19] = patient 1, 60 min after injection
[20] = patient 2, 60 min after injection
[21] = patient 3, 60 min after injection
[22] = HCC827 tumors, 120 min after i.v. injection of 3.7 MBq

IC50 (H1975 cells [1]): 2270 ± 1170 nM | IC50 (H358 cells [2]): 7.05 ± 2.3 µM | IC50 (H520 cells [3]): 18.4 ± 2.21 µM | IC50 (HCC827 cells [4]): 5.6 ± 0.2 nM | IC50 (H3255 cells): 13.1 ± 4.4 nM
SMILES: FCCOCCOCCOCCOc1cc2ncnc(Nc3ccc(F)c(Cl)c3)c2cc1OCCCN1CCOCC1 [F-IRS]

SMILES: Fc1ccc(Nc2ncnc3cc(OCCOCCOCCOCC[18F])c(OCCCN4CCOCC4)cc23)cc1Cl [^18F-IRS]
tumor uptake on PET/CT images (H520 xenografts [5]): unobviously detectable | tumor uptake on PET/CT images (H1975 xenografts): unobviously detectable | tumor uptake on PET/CT images (H358 xenografts [6]): unobviously detectable | route of elimination ([7]; mice, PET/CT imaging and biodistribution): mainly eliminated through renal clearance | uptake in all other organs and blood ([7]; tumor-bearing nude mice, except kidneys, intestine and gallbladder): very low | cellular uptake (H1975 cells [8]): 1.49 ± 0.05% | cellular uptake (H358 cells [9]): 1.82 ± 0.19% | cellular uptake (H520 cells [10]): 2.31 ± 0.36% | SUVmax Bladder [11, 18]: 5.11 ± 3.02 | SUVmax Brain [11, 18]: 0.43 ± 0.29 | SUVmax Kidneys [11, 18]: 13.13 ± 0.31 | SUVmax Liver [11, 18]: 10.48 ± 0.44 | SUVmax Lungs [11, 18]: 0.82 ± 0.23 | SUVmax Muscles [11, 18]: 0.65 ± 0.14 | SUVmax Small intestines [11, 18]: 8.05 ± 1.67 | SUVmax Tumor [11, 18]: 2.44 ± 0.49 | SUVmax Bladder [11, 19]: 8.51 | SUVmax Brain [11, 19]: 0.19 | SUVmax Kidneys [11, 19]: 12.96 | SUVmax Liver [11, 19]: 10.52 | SUVmax Lungs [11, 19]: 0.58 | SUVmax Muscles [11, 19]: 0.73 | SUVmax Small intestines [11, 19]: 7.17 | SUVmax Tumor [11, 19]: 2.19 | SUVmax Bladder [11, 20]: 4.11 | SUVmax Brain [11, 20]: 0.76 | SUVmax Kidneys [11, 20]: 13.49 | SUVmax Liver [11, 20]: 10.9 | SUVmax Lungs [11, 20]: 1.04 | SUVmax Muscles [11, 20]: 0.75 | SUVmax Small intestines [11, 20]: 9.99 | SUVmax Tumor [11, 20]: 2.12 | SUVmax Bladder [11, 21]: 2.72 | SUVmax Brain [11, 21]: 0.34 | SUVmax Kidneys [11, 21]: 12.95 | SUVmax Liver [11, 21]: 10.02 | SUVmax Lungs [11, 21]: 0.85 | SUVmax Muscles [11, 21]: 0.49 | SUVmax Small intestines [11, 21]: 7.01 | SUVmax Tumor [11, 21]: 3.01 | main route of elimination ([11]; patients with NSCLC): urinary tract, followed by the hepatobiliary | changes in heart rates, respiration rates, and blood pressure ([11]; patients with NSCLC, after i.v. injection): no significant changes | cellular uptake after blocking (HCC827 cells [12]; HCC827 cells treated with 100 μmol/L gefitinib, 120 min of incubation): 0.89 ± 0.12% | cellular uptake (HCC827 cells [12]; 15 min of incubation): 7.51 ± 1.05% | cellular uptake (HCC827 cells [12]; 30 min of incubation): 10.03 ± 0.47% | cellular uptake (HCC827 cells [12]; 120 min of incubation): 14.07 ± 0.98% | accumulation in tumors on PET/CT images (HCC827 xenografts [13]; [22]): significantly high accumulation | tumor/muscle ratio (PET quantification) (HCC827 xenografts [13]; HCC827 vs H1975, H358 and H520 xenografts, 120 min, P < 0.01): significantly higher | tumor uptake on PET/CT after blocking (HCC827 xenografts [13]; HCC827 xenografts, gefitinib 100 mg/kg before imaging, 120 min): blocked by gefitinib | tumor uptake (ex vivo biodistribution) (H520 xenografts [14]): 1.62 ± 0.08 % ID/g | tumor uptake (ex vivo biodistribution) (H358 xenografts [15]): 1.68 ± 0.29 % ID/g | tumor uptake (ex vivo biodistribution) (HCC827 xenografts [16]; [22]): 4.27 ± 0.15 % ID/g | tumor uptake (ex vivo biodistribution) after blocking (HCC827 xenografts [16]; HCC827 xenografts blocked by gefitinib 100 mg/kg, 120 min): 1.12 ± 0.21 ID/g

SMILES: COc1cc2ncnc(Nc3ccc(F)c(Cl)c3)c2cc1OCCCN1CCOCC1 [gefitinib]
sensitivity of cell line (H520 cells [17]): do not respond | sensitivity of cell line (H358 cell line): less sensitive | sensitivity of cell line (H1975): conferring resistance
